Data: US7989495B2, “Compositions and methods for inhibiting NF-κB mediated tumorigenicity and adhesion dependent survival of cancer cells” (University of Utah Research Foundation, priority 2002, dated 2011)

Columns and labels:
[1] = tested on: DLD-1 cells expressing IκB super-repressor; test: Readhesion survival of cells transduced with adenovirus IκB super-repressor (crystal violet); assay type: cell-based; details: subapoptotic concentrations, readhesion 8 h
Procedure: (§1) The percentage of apoptotic cells was determined using the annexin V assay. The data points represent the averages of three experiments; bars, ±SE. E. DLD-1 and F. HT-29 cells were transduced with an adenovirus containing the IκB super-repressor construct. After 3 days, the cells were transiently suspended and allowed to readhere in the presence of subapoptotic concentrations of BAY 11-7085 or DMSO (vehicle) for 8 h. The data are expressed as fractions of cells surviving compared with the controls (no adenovirus) and were quantitatively determined by staining the remaining adherent cells with crystal violet.
(§2) DLD-1 and HT-29 cells that were approximately 60-70% confluent were transduced with Ad-IκB super-repressor by adding 1-50 μl of purified virus to the cells. […] In a parallel experiment, the transduced cells were resuspended and allowed to readhere in BAY 11-7085 for 8 h. The percentage of surviving (nonapoptotic) cells was determined using crystal violet staining.
(§3) The specific involvement of NF-κB in the apoptotic mechanism of BAY 11-7085 was examined specifically. […] The transduced DLD-1 and HT-29 cells were then transiently suspended and allowed to readhere at concentrations of BAY 11-7085 below the in vitro apoptotic threshold (>20 μM) for these cell lines. […] Therefore, inhibition of NF-κB is important to the apoptotic effect of BAY 11-7085 during colon cancer cell readhesion.

[2] = tested on: HT-29 cells expressing IκB super-repressor; test: as above; assay type: cell-based; details: subapoptotic concentrations, readhesion 8 h
Procedure: as §1, §2, §3

CC(C)(C)c1ccc(S(=O)(=O)/C=C/C#N)cc1 [BAY 11-7085, (2E)-3-[4-(tertiarybutylphenyl)sulfonyl]-2-propenenitrile]
apoptotic threshold with IκB super-repressor expression compared with controls [1]: significantly lowered the apoptotic threshold
apoptotic threshold with IκB super-repressor expression compared with controls [2]: significantly lowered the apoptotic threshold
